Key:
[1] = test system: T-47D; assay: Caspase cascade activation assay (fluorogenic N-(Ac-DEVD)-N'-ethoxycarbonyl-R110 substrate) in T-47D cells; type: cell-based, Human; settings: 48 h incubation; for Caspase Activity Ratio: ratio of net RFU of compound to control; for EC50: Homo sapiens, T47D, read-out: Caspase Potency EC50
Procedure: Human breast cancer cell lines T-47D and ZR-75-1 were grown according to media component mixtures designated by American Type Culture Collection +10% FCS (Invitrogen Corporation), in a 5% CO2—95% humidity incubator at 37° C. T-47D and ZR-75-1 cells were maintained at a cell density between 50 and 80% confluency at a cell density of 0.1 to 0.6×10^6 cells/mL. Cells were harvested at 600×g and resuspended at 0.65×10^6 cells/mL into appropriate media +10% FCS. An aliquot of […] of cells was added to a well of a […] microtiter plate containing 2.5 μl of a 10% DMSO in RPMI-1640 media solution containing 0.16 to 100 μM of 5-(3-chloro-thiophen-2-yl)-3-(4-trifluoromethyl-phenyl)-[1,2,4]-oxadiazole or other test compound (0.016 to 10 μM final). An aliquot of 22.5 μL of cells was added to a well of a […] microtiter plate containing 2.5 μl of a 10% DMSO in RPMI-1640 media solution without test compound as the control sample. The samples were mixed by agitation and then incubated at 37° C. for 48 h in a 5% CO2—95% humidity incubator. After incubation, the samples were removed from the incubator and 25 μL of a solution containing 14 μM of N-(Ac-DEVD)-N′-ethoxycarbonyl-R110 (SEQ ID No.:1) fluorogenic substrate (Maxim, Inc.; WO99/18856), 20% sucrose (Sigma), 20 mM DTT (Sigma), 200 mM NaCl (Sigma), 40 mM Na PIPES buffer pH 7.2 (Sigma), and 500 μg/mL lysolecithin (Calbiochem) was added. The samples were mixed by agitation and incubated at room temperature. Using a fluorescent plate reader (Model SpectraMax Gemini, Molecular Devices), an initial reading (T=0) was made approximately 1-2 min after addition of the substrate solution, employing excitation at 485 nm and emission at 530 nm, to determine the background fluorescence of the control sample. After the 3 h incubation, the samples were read for fluorescence as above (T=3 h).
The Relative Fluorescence Unit values (RFU) were used to calculate the sample readings as follows: RFU(T=3 h)−Control RFU(T=0)=Net RFU(T=3 h)
The activity of caspase cascade activation was determined by the ratio of the net RFU value for 5-(3-chloro-thiophen-2-yl)-3-(4-trifluoromethyl-phenyl)-[1,2,4]-oxadiazole or other test compound to that of control samples. The EC50 (nM) was determined by a sigmoidal dose-response calculation (Prism 2.0, GraphPad Software Inc.).

[2] = test system: T-47D; assay: Cell proliferation assay (GI50), T-47D; type: cell-based; settings: Homo sapiens, T47D, 48 h
Procedure: (§1) T-47D and SKBr-3 cells were grown and harvested as in Example 121. An aliquot of 90 μL of cells (2. 2×10^4 cells/mL) was added to a well of a 96-well microtiter plate containing 10 μl of a 10% DMSO in RPMI-1640 media solution containing 1 nM to 100 μM of 5-(3-chloro-thiophen-2-yl)-3-(4-trifluoromethyl-phenyl)-[1,2,4]-oxadiazole (0.1 nM to 10 μM final). An aliquot of 90 μL of cells was added to a well of a 96-well microtiter plate containing 10 μL of a 10% DMSO in RPMI-1640 media solution without compound as the control sample for maximal cell proliferation (AMax). The samples were mixed by agitation and then incubated at 37° C. for 48 h in a 5% CO2—95% humidity incubator. After incubation, the samples were removed from the incubator and 20 μL of CellTiter 96 AQUEOUS One Solution Cell Proliferation™ reagent (Promega) was added. The samples were mixed by agitation and incubated at 37° C. for 2-4 h in a 5% CO2—95% humidity incubator. Using an absorbance plate reader (Model 1420 Wallac Instruments), an initial reading (T=0) was made approximately 1-2 min after addition of the solution, employing absorbance at 490 nm. This determines the possible background absorbance of the test compounds. No absorbance for 5-(3-chloro-thiophen-2-yl)-3-(4-trifluoromethyl-phenyl)-[1,2,4]-oxadiazole was found at 490 nm. After the 2-4 h incubation, the samples were read for absorbance as above (ATest). […]

[3] = test system: ZR-75-1; assay: Cell proliferation assay (GI50), ZR-75-1; type: cell-based; settings: Homo sapiens, ZR75-1, 48 h
Procedure: [The source words this procedure for another cell line and reports this cell line under the same test.] as §1

[4] = test system: MX-1; assay: Cell proliferation assay (GI50), MX-1; type: cell-based; settings: Homo sapiens, MX1; MX-1, breast cancer cell line, 48 h
Procedure: [The source words this procedure for another cell line and reports this cell line under the same test.] as §1

[5] = test system: SK-Br-3; assay: Cell proliferation assay (GI50), SK-Br-3; type: cell-based; settings: Homo sapiens; SK-Br-3, breast cancer cell line, 48 h
Procedure: as §1

[6] = test system: PC-3; assay: Cell proliferation assay (GI50), PC-3; type: cell-based; settings: Homo sapiens; PC-3, non-breast cancer cell line, 48 h
Procedure: [The source words this procedure for another cell line and reports this cell line under the same test.] as §1

[7] = test system: Panc-1; assay: Cell proliferation assay (GI50), Panc-1; type: cell-based; settings: Homo sapiens; Panc-1, non-breast cancer cell line, 48 h
Procedure: [The source words this procedure for another cell line and reports this cell line under the same test.] as §1

[8] = test system: SW-620; assay: Cell proliferation assay (GI50), SW-620; type: cell-based; settings: Homo sapiens; SW-620, non-breast cancer cell line, 48 h
[9] = test system: NCI-H23; assay: Cell proliferation assay (GI50), NCI-H23; type: cell-based; settings: Homo sapiens; NCI-H23, non-breast cancer cell line, 48 h
Procedure: [The source words this procedure for another cell line and reports this cell line under the same test.] as §1

[10] = test system: K562; assay: Cell proliferation assay (GI50), K562; type: cell-based; settings: Homo sapiens; K562, non-breast cancer cell line, 48 h
Procedure: [The source words this procedure for another cell line and reports this cell line under the same test.] as §1

[11] = test system: DLD-1; assay: Cell proliferation assay (GI50), DLD-1; type: cell-based; settings: Homo sapiens; DLD-1, colon cancer cell line, 48 h
[12] = test system: MX-1 cells; assay: Clonogenic survival of MX-1 solid tumor cells; type: cell-based; settings: Homo sapiens, MX1, 48 h treatment, colonies counted after 7-10 days, read-out: IC50 of colony forming ability (clonogenic survival)
Procedure: MX-1 cells were grown according to the conditions recommended by American Type Culture Collection. In a well of a 96 well plate, 30,000 cells were seeded and treated with compound at the indicated concentrations for 48 h in a 5% CO2—95% humidity incubator at 37° C. Control wells were treated with the same amount of solvent (DMSO) as the compound samples. After the indicated treatment time, the supernatant was removed to a sterile culture tube and the wells washed with phosphate buffered saline, and the adherent cells trypsinized for 5 min. The trypsinzed cells were added to the culture supernatant, cells were collected (1,200 rpm, 10 min), washed with phosphate buffered saline, and resupended in fresh media. The cells were counted for trypan blue negative cells, and the cells diluted with fresh media to 1,000 cells/mL. To a well of a 24-well plate, 0.1 mL of the cell suspension was added along with 1 mL of fresh media (cell suspensions were passed through a 22G needle several times just before plating to form single cell suspensions). Plates are incubated in a 5% CO2—95% humidity incubator at 37° C. for 7-10 days. Colonies are counted when the sizes reached greater than 50 cells per colony. […] Colonies are rinsed with water and the colonies counted and the fraction surviving expressed as the percentage of the number of control colonies.

| SMILES | EC50 [1] | GI50 [2] | GI50 [5] | GI50 [6] | GI50 [7] | GI50 [8] | GI50 [9] | GI50 [10] | GI50 [11] | Caspase Activity Ratio [1] | GI50 [3] | GI50 [4] | IC50 [12] |
| --- | --- | --- | --- | --- | --- | --- | --- | --- | --- | --- | --- | --- | --- |
| Clc1ccc(-c2noc(-c3sccc3Cl)n2)cc1 [Example 1, 3-(4-Chloro-phenyl)-5-(3-chloro-thiophen-2-yl)-[1,2,4]-oxadiazole] | 3610 nM | 250 nM | 20 nM | > 10000 nM | > 10000 nM | > 10000 nM | > 10000 nM | > 10000 nM | 35 nM | 16.9 | 200 nM | 300 nM |  |
| FC(F)(F)c1ccc(-c2noc(-c3sccc3Cl)n2)cc1 [Example 4, 5-(3-Chloro-thiophen-2-yl)-3-(4-trifluoromethyl-phenyl)-[1,2,4]-oxadiazole] | 5350 nM |  |  |  |  |  |  |  |  | 4.2 |  |  | ~1050 nM |
| O=[N+]([O-])c1ccc(-c2noc(-c3sccc3Cl)n2)cc1 [Example 6, 5-(3-Chloro-thiophen-2-yl)-3-(4-nitro-phenyl)-[1,2,4]-oxadiazole] | 5000 nM |  |  |  |  |  |  |  |  | 3.8 |  |  |  |

Stronger by EC50 [1], values ahead:

| EC50 [1] | GI50 [2] | GI50 [5] | GI50 [6] | GI50 [7] | GI50 [8] | GI50 [9] | GI50 [10] | GI50 [11] | SMILES | Caspase Activity Ratio [1] | GI50 [3] | GI50 [4] | IC50 [12] |
| --- | --- | --- | --- | --- | --- | --- | --- | --- | --- | --- | --- | --- | --- |
| 2140 nM | 300 nM | 20 nM | > 10000 nM | > 10000 nM | > 10000 nM | > 10000 nM | > 10000 nM | 40 nM | Fc1ccc(-c2noc(-c3sccc3Cl)n2)cc1 [Example 5, 5-(3-Chloro-thiophen-2-yl)-3-(4-fluoro-phenyl)-[1,2,4]-oxadiazole] | 19.7 | 400 nM | 400 nM |  |
| 865 nM |  |  |  |  |  |  |  |  | Clc1ccc(-c2noc(-c3sccc3Cl)n2)c(Cl)c1 [Example 7, 5-(3-Chloro-thiophen-2-yl)-3-(2,4-dichloro-phenyl)-[1,2,4]-oxadiazole] | 4.1 |  |  |  |
